From patent US20020152038A1, “Selection method for aroma substances” (priority 2000, published 2002)

Experiments:
[1] = Headspace above the milkshake, SPME-GC, relative partition parameters; type: physicochemical; details: headspace vs milkshake, 0.2% aroma mixture, 2 h at 35° C., SPME 15 min
Experimental: (§1) The procedure is analogous in all examples.
The example reflects the taste impression which is perceived via the olfactory epithelium, when enjoying a milkshake. The milkshake is prepared as is generally customary. The mixture of 39 aroma substances is incorporated into the abovementioned milk product (1) in an amount of 0.2%. 50 g of this mixture are transferred to a 100 ml Erlenmeyer flask sealed with a septum and left to stand for 2 h at 35° C. with gentle stirring. The headspace above the mixture is extracted over 15 min using solid phase microextraction (SPME). The SPME needle is desorbed in a GC injector, and a gas chromatogram is recorded. […] The analytical results are then used mathematically as described above.

[2] = Headspace above the lemonade, SPME, relative partition parameters; type: physicochemical; details: headspace vs lemonade, 0.05% odorant mixture, 2 h at 35° C., SPME 15 min
Experimental: as §1
The example reflects the taste impression which is perceived from via the olfactory epithelium, when enjoying a lemonade drink. The mixture of 39 odorants is incorporated into the above-mentioned lemonade drink (1) in an amount of 0.05%. 50 g of the lemonade drink are transferred to a 100 ml Erlenmeyer flask sealed with a septum and left to stand for 2 h at 35° C. with gentle stirring. The headspace above the lemonade is extracted using a SPME over 15 min. […] The analytical results are then used mathematically as described above.

[3] = according to COSMO-RS correlation
[4] = according to COSMO-RS correlation; remark: listed apart in the source

Row | Compound | Activity (logarithmic partition parameter above a milkshake) [1] | Activity (logarithmic partition parameter above lemonade) [2] | Differences (Activity minus Prediction, milkshake) [3] | Differences (Activity minus Prediction, lemonade) [4]
1 | C=CC(C)(O)CCC=C(C)C (stereo not drawn) [Linalool] | 0.225 | 0.141 | −0.231 | 0.246
2 | CCCCCC/C(C=O)=C\c1ccccc1 [Hexylcinnamaldehyde, α] | −1.949 | −1.911 | −0.674 | −0.710
3 | O=C(OCc1ccccc1)c1ccccc1O [Benzyl salicylate] | −3.313 | −3.037 | −1.057 | −0.340
4 | C=C1CCC2CC1C2(C)C (stereo not drawn) [Beta-Pinene] | 1.029 | 0.485 | −0.082 | −0.189
5 | CC1=CCC(C(C)C)=CC1 [gamma-Terpinene] | 1.064 | 1.032 | −0.004 | 0.411
6 | CC(=O)OC(C)(C)Cc1ccccc1 [DMBCA, dimethylbenzylcarbinyl acetate] | 0.378 | 0.523 | 0.537 | 0.898
7 | CC(=O)/C=C/C1C(C)=CCCC1(C)C (stereo not drawn) [Ionone, α, Ionone, alpha] | −0.001 | 0.024 | 0.158 | −0.060
8 | CC(=O)OCC=C(C)C [Prenyl acetate] | 0.413 | 0.151 | −0.864 | −1.038
9 | CC(C=O)Cc1ccc(C(C)(C)C)cc1 (stereo not drawn) [Lilial] | −0.690 | −0.656 | 0.135 | 0.074
10 | C=C1C2CCC(C2)C1(C)C (stereo not drawn) [Camphene] | 0.985 | 0.465 | −0.169 | −0.226
11 | CC1=CCC2CC1C2(C)C (stereo not drawn) [alpha-Pinene] | 1.078 | 0.363 | 0.067 | −0.110
12 | C=CCc1ccc(O)c(OC)c1 [Eugenol] | −0.557 | −0.841 | 0.528 | 0.454
13 | CC(=O)OC(C)c1ccccc1 (stereo not drawn) [Styrolyl acetate] | 0.402 | 0.312 | 0.554 | 0.641
14 | C=CC(C)CCCC(C)(C)O (stereo not drawn) [Dihydromyrcenol] | 0.432 | 0.334 | 0.135 | 0.513
15 | CC(=O)OCc1ccccc1 [Benzyl acetate] | 0.306 | 0.086 | 0.515 | 0.552
